Data published in US20230106220A1, “METHOD FOR TREATMENT OF ROSACEA” (Sol-Gel Technologies Ltd., priority 2019, published 2023).

Legend:
[1] = system: patients afflicted with papulopustular rosacea; assay: IGA success (2-grade improvement to clear or almost clear), 12-week double-blind vehicle-controlled study of E-BPO cream; format: in vivo, human; conditions: four weeks
Procedure: (§1) Description: A multi-center, double-blind, randomized, vehicle-controlled, dose-range study of encapsulated 5% benzoyl peroxide (E-BPO) Cream and vehicle cream was performed to assess the efficacy and safety of E-BPO compared to vehicle. Study duration was 12 weeks and included approximately 350 male and female patients afflicted with papulopustular rosacea. Patients were at least 18 years of age, and met the inclusion/exclusion criteria described herein.
(§2) Dosing: Patients were randomized in a 2:1 ratio to the study product or vehicle treatment group, respectively. […]
(§3) Patients were admitted into the study after meeting all inclusion/exclusion criteria, including a clinical diagnosis of rosacea and after written informed consent has been obtained. […] At each visit, a 5-point IGA scale of rosacea; rosacea erythema, and telangiectasia; and inflammatory (papules, pustules) lesion counts were performed and recorded.
(§4) Evaluation of efficacy: The first application of the test product was applied at the investigational site at the end of the Baseline visit (Day 0) under the supervision and instruction of the designated investigational site staff. […] The evaluator also assessed local application site irritation (dryness, scaling, pruritus, stinging and burning) at Baseline and Weeks 2, 4, 8 and 12 (end of study). […]

[2] = system: rosacea; conditions: BPO as the sole active agent; cited from earlier work
[3] = system: inflammatory lesions (papules, pustules) of patients with papulopustular rosacea; assay: Inflammatory lesion count change from baseline, 12-week vehicle-controlled study of E-BPO cream; format: in vivo, human
Procedure: as §1, §2, §3, §4

Structure (SMILES): O=C(OOC(=O)c1ccccc1)c1ccccc1 [BPO, Benzoyl peroxide]
- success in IGA relative to the effect observed after treatment with SOOLANTRA [1]: more than twice
- response of lesions [2]: unresponsive
- decrease in inflammatory lesions relative to the effect observed after treatment with vehicle cream ([3]; after at least 12 weeks of treatment): more than 1.5 x
- decrease in inflammatory lesions ([3]; after only 2 weeks of treatment, on average): about 40%
